The subject of experiment [1] is antibody Refmab #1. As to the kind of experiment: Octet screen: binding of CD117 D1-2-3 variants to captured Refmab #1. The conditions noted are these: nm shift at end of association, top analyte concentration (500 nM). The method in brief: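 Refmab #1 captured on anti-human Fc biosensors; human CD117 D1-2-3 wt or variants flowed as analyte at 500, 50 and 5 nM, 25° C., 300 s association/900 s dissociation, buffer-referenced. Binding level at top concentration, end of association, expressed as percent of wild type; 1:1 fits where possible.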
In general terms: In BLI a coated tip is dipped into the sample, and binding shifts an interference pattern.

Experiment [2] addresses antibody Refmab #1. As to the kind of experiment: Octet titration, steady state KD of CD117 D1-2-3 variants to Refmab #1. The experiment is classed as binding. The procedure: To further characterize binding of Refmab #1 to CD117 D1-2-3 variants E73K, E73L, E73R, E73Y, D121H, D121K, S123K and S123F, the analytes were titrated at 7 different concentrations (from 2000 nM to 5 nM). Antibody Refmab #1 was captured by AHC biosensors for 300 s at 0.5 to 1 μg/mL. Association and dissociation to Refmab #1 was extended to 600 s and 1000 s, respectively. Steady state analysis was performed.

Experiment [3] relates to TF-1 cells. The experiment can be described thus: SCF-dependent proliferation of TF-1 cells with CD117 knock-in (CellTiter-Glo). The experiment is classed as cell-based, human. Conditions: 100 ng/ml SCF; 3 days; knock-in TF-1 cells. The procedure: (§1) SCF-dependent proliferation is another function of CD117. SCF-dependent proliferation was measured as follows: TF-1 cells were seeded at a cell concentration of 150 000 cells/ml in sterile, white cell culture treated plates in RPMI Media+10% FCS. Cells were treated with 100 ng/ml of SCF and a titration of various CD117 antibodies or an isotype control antibody at different concentrations. After 3 days of incubation a CellTiter-Glo 2.0 assay (Promega) was performed and luminescence was read in a luminometer (e.g. Envision or Phera Star plate readers).
(§2) CD117 wild-type TF-1 cells were compared to TF1 cells with a E73K knock in. […] Both KI1 and KI2 were obtained upon sorting the edited TF1 cells using the SONY MA900, removing any wild-type and knock out cells from the final subsets, thus yielding high purity of knock in.
In general terms: Cellular ATP, detected with luciferase, serves as a proxy for viable cell number.

The subject of experiment [4] is TF-1 cells. As to the kind of experiment: SCF-dependent proliferation, SCF titration on TF-1 cells with CD117 variants (CellTiter-Glo). It is filed as cell-based, human. Conditions: titration of SCF; 3 days; TF-1 cells with the CD117 variant. The essentials:
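TF-1 cells expressing wildtype or variant CD117 seeded at 150 000 cells/ml in RPMI+GlutaMax+10% FCS and titrated with SCF. Viability read by CellTiter-Glo 2.0 luminescence after 3 days; EC50 determined from two experiments, each in triplicate.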

Experiment [5] concerns TF-1 cells. The experiment can be described thus: SCF-dependent phosphorylation of CD117 variants in TF-1 cells (Tyr719 ELISA). It is filed as cell-based, human. Conditions: 1-20 ng/ml SCF for 5 minutes. How it is done: TF-1 cells (wild type, knock out, and variants E73K, D121K and S123K of CD117) were seeded at a concentration of 1 million cells/ml in 2 ml of Medium (RPMI1640 supplemented with GlutaMAX+10% heat inactivated FBS) in a 6-well plate. Cells were treated with 1-20 ng/ml recombinant human SCF (1 mg/ml PeproGMP Recombinant Human SCF) for 5 minutes, before cell collection. Cells were washed with ice-cold PBS, before resuspending cells in 500 μL Lysis Buffer (Lysis buffer from Signaling containing Protease Inhibitor and Phosphatase Inhibitor). Cells were flash frozen in liquid nitrogen and thawed at 37° C. twice, before freezing them at −80° C. until further usage. Undiluted samples were thawed and processed according to the manufacturers protocol for the PathScan Phospho-c-Kit (Tyr719) Sandwich ELISA Kit (Cell Signaling). Absorbance (OD_450 nm) was assessed using the Envision (Perkin Elmer).
Background: ELISA stands for enzyme-linked immunosorbent assay.

The subject of a further experiment is Refmab #1. As to the kind of experiment: Refmab #1 titration on engineered TF-1 cells (flow cytometry). It is filed as binding. Conditions: 5-0.00015 μg/mL antibody; 4° C.
Another experiment deals with CD117+ myeloid cells. The experiment can be described thus: Depletion experiment in NSG mice with E73K gene-edited HSPCs. Conditions: in the presence of isotype control antibody. It is filed as in vivo. How it is done: In another experiment, NSG mice (Jackson Laboratories) were sub-lethally irradiated one day before injection with 1 Mio gene-edited HSPCs carrying a E73K variant of CD117. 8, 10, 12 and 14 days after cell injection mice received 25 mg/kg antibody Refmab #1-Bert or 25 mg/kg isotope control antibody i.v. per dose. 16 weeks later the mice were euthanized, and blood, spleen and bone marrow were analyzed by FACS.
CD117+ myeloid cells were identified by FACS as live/hCD45+/CD33+/CD117+. […] Clone 104D2 was used as an expression control. Cells were classified as not edited (104D2+ and SR-1+) or E73K edited (104D2+ but SR-1−) based on double staining with anti-CD117 clone SR-1 and anti-CD117 clone 104D2.

In the next experiment the test system is wild type TF-1 cells. The experiment can be described thus: Inhibition of SCF-dependent proliferation, wild type TF-1 cells. The experiment is classed as cell-based, human. The conditions noted are these: for effect on SCF-dependent proliferation of wild type TF-1 cells: 100 ng/ml SCF, increasing concentrations, 3 days. How it is done: as §1
(§3) Next, proliferation of the variants was tested with increasing concentrations of RefMab #1 at a constant concentration of SCF (100 ng/ml). TF-1 cells were seeded at a cell concentration of 150 000 cells/ml in sterile, white cell culture treated plates with transparent bottom in RPMI+GlutaMax+10% FCS and a fix concentration of 100 ng/ml SCF in the media, Cells were treated with different concentrations of RefMab #1. After 3 days of incubation a CellTiter-Glo 2,0 assay (Promega) was performed, luminescence was read in a luminometer (Envision plate reader).

Experiment [6] deals with TF-1 cells with knock-ins of CD117 variants. The experiment can be described thus: Inhibition of SCF-dependent proliferation, TF-1 cells with CD117 variant knock-in. The conditions noted are these: 100 ng/ml SCF; increasing concentrations; 3 days; E73K; all variants tested; listed as RefMab #1. It is filed as cell-based, human. How it is done:
as §1, §2, §3

In another experiment the test system is HSPC's. The experiment can be described thus: Inhibition of SCF-dependent proliferation, HSPCs. The experiment is classed as cell-based, human. The procedure: For human CD34+ HSCs (different donors) cells are seeded in X-Vivo 20 medium with 100 ng/ml SCF, 50 ng/ml TPO and 50 ng/ml FLT-3 Ligand in sterile white cell culture treated plates at a cell density of 30 000 cells/ml. HSCs are then treated with various CD117 antibodies or an isotype control antibody at different concentrations and plates are incubated for 5 days. After 5 days a CellTiter-Glo 2.0 assay (Promega) is performed and luminescence is read in a luminometer (e.g. Envision or Phera Star plate readers).

The next experiment has as its system CD117. As to the kind of experiment: Blocking of SCF-induced CD117 phosphorylation (Tyr719 ELISA), wild type TF-1 cells. It is filed as cell-based, human. Conditions: 0.5 ug/mL antibody or 500 nM avapritinib; 100 ng/ml SCF 5 minutes. How it is done: (§4) SCF-dependent phosphorylation is another function of CD117. SCF-dependent phosphorylation was measured using TF-1 cells expressing CD117 (as shown in previous experiments). TF-1 cells were seeded at a concentration of 1 million cells/ml in 1 ml of Medium (RPMI1640 supplemented with GlutaMAX+10% heat inactivated FBS) in a 6-well plate. Cells were treated with 0.5 ug/mL antibody or 500 nM avapratinib. Cells were then treated with 100 ng/ml recombinant human SCF (1 mg/ml PeproGMP® Recombinant Human SCF) for 5 minutes, before cell collection. Cells were washed with ice-cold PBS, before resuspending cells in 250 μL Lysis Buffer (Lysis buffer from Signaling containing Protease Inhibitor and Phosphatase Inhibitor). Cells were flash frozen in liquid nitrogen and thawed at 37° C. twice, before freezing them at −80° C. until further usage. Undiluted samples were thawed and processed according to the manufacturers protocol for the PathScan® Phospho-c-Kit (Tyr719) Sandwich ELISA Kit (Cell Signaling). Absorbance (OD_450 nm) was assessed using the Envision (Perkin Elmer).
(§5) TF-1 cells (wild type, and variants E73K, E73Y, D121K, S123F and S123K of CD117) were seeded at a concentration of 1 million cells/mL in 2 ml of Medium (RPMI1640 supplemented with GlutaMAX+10% heat inactivated FBS) in a 6-well plate. Cells were pre-treated with 0.5 μg/ml of antibodies Refmab #1-Ernie or Refmab #1-Bert for 30 minutes, before adding 100 ng/ml recombinant human SCF (1 mg/mL PeproGMP® Recombinant Human SCF) for 5 minutes. Cells were collected, washed once with ice-cold PBS and resuspended in 500 μL Lysis Buffer (Lysis buffer from Signaling containing Protease Inhibitor and Phosphatase Inhibitor). Cells were then flash frozen in liquid nitrogen and thawed at 37° C. twice, before freezing them at −80° C. until further usage. Undiluted samples were thawed and processed according to the manufacturers protocol for the PathScan Phospho-c-Kit (Tyr719) Sandwich ELISA Kit (Cell Signaling) or the Human c-Kit (CD117) ELISA Kit (Abcam). Absorbance (OD_450 nm) was assessed using the Envision (Perkin Elmer).

Another experiment relates to variants of CD117. As to the kind of experiment: Blocking of SCF-induced CD117 phosphorylation (Tyr719 ELISA), TF-1 cells with CD117 variants. The experiment is classed as cell-based, human. The conditions noted are these: 0.5 ug/mL antibody or 500 nM avapritinib; 100 ng/ml SCF 5 minutes. The procedure:
as §4, §5

With “E73K: variant of human CD117 (SEQ ID NO: 1) with substitution E73K”, the “binding to Refmab #1 compared to wild type” value in the experiment on antibody Refmab #1 [1] is “strong decrease in binding”. In addition, at antibody Refmab #1 [2] (7 concentrations 2000-5 nM, steady state, two individual experiments), the Kd amounted to 1200 nM. Moreover, the “change of KD compared to wild type CD117” value in the experiment on antibody Refmab #1 [2] (KD variant vs wild type) is 1200 fold. Further, in the experiment with TF-1 cells [3], the SCF-dependent proliferation result is on record as “strongly proliferated”. Further, in the experiment on TF-1 cells [4], the “EC50 Experiment #1” value turned out to be 3.73 ng/mL and the “EC50 Experiment #2” value is 3.42 ng/mL. Also, the “SCF-dependent phosphorylation at position Tyr719 of CD117” value in the experiment on TF-1 cells [5] was “showed a SCF-dependent phosphorylation”. Moreover, the “Binding of Refmab #1 to TF-1 cells expressing the CD117 variant” value in the experiment with Refmab #1 is on record as “completely abolished”. Also, the “engraftment of edited CD34+ human cells in immune-deficient mice” value in the experiment with CD117+ myeloid cells is “engraft essentially as well as unedited cells”.

B1: Refmab #1: anti-CD117 antibody, VH SEQ ID 15, VL SEQ ID 16, human IgG1 Fc silent (AEASS); also tested as Fab (antibody, V domains shown)
VH: QVQLQQPGAELVKPGASVKMSCKASGYTFTSYNMHWVKQTPGQGLEWIGVIYSGNGDTSYNQKFKGKATLTADKSSSTAYMQINSLTSEDSAVYYCARERDTRFGNWGQGTLVTVSA
VL: NIVLTQSPASLAVSLGLRATISCRASESVDIYGNSFMHWYQQKPGQPPKLLIYLASNLESGVPARFSGSGSRTDFTLTIDPVEADDAATYYCQQNNEDPYTFGGGTKLEIK
modifications: human IgG1 Fc silent (AEASS); Refmab #1 VH; Refmab #1 VL
notes: also tested as Fab
Regarding B1, the “effect on SCF-dependent proliferation of wild type TF-1 cells” value with wild type TF-1 cells is “decrease in proliferation”; with wild type TF-1 cells (listed as RefMab #1), “pronounced effect”. For the same molecule, the “IC50 in SCF-dependent proliferation assay” value in the experiment on wild type TF-1 cells (TF-1 cells) worked out at 0.2760 µg/mL; in the experiment with HSPC's, 0.0623 µg/mL. Further, in experiment [6], the “effect on SCF-dependent proliferation of TF-1 cells with CD117 variants” value is recorded as “not affected”. Further, the “blocking of SCF-induced phosphorylation, wild type cells” value in the experiment with CD117 is “can be blocked”. For the same molecule, the “blocking of SCF-induced phosphorylation, E73K variant” value in the experiment with variants of CD117 is “unaffected”.

Usually Kd stands for the free concentration of one partner at which half of the binding sites on the other are occupied at equilibrium, for simple one-to-one binding. Higher therefore signals lower affinity.

Source of the values: patent US20250057951A1, “DISCERNIBLE CELL SURFACE PROTEIN VARIANTS OF CD117 FOR USE IN CELL THERAPY” (UNIVERSITÄT BASEL, priority 2021, published 2025).
